From patent publication US10717742B2, “Spiro[3H-indole-3,2′-pyrrolidin]-2(1H)-one compounds and derivatives as MDM2-P53 inhibitors” (Boehringer Ingelheim International GmbH, priority 2015, dated 2020)

Target: p53-MDM2 interaction (GST-MDM2 protein aa 23-117 / biotinylated p53 wt peptide) (Homo sapiens (Human), UniProt Q00987)
Assay: Mdm2-p53 Inhibition AlphaScreen
Type: binding
Settings: GST-MDM2 (aa 23-117) / biotinylated p53 wt peptide
Protocol: Mdm2-p53 Inhibition AlphaScreen
15 μL of compound in 20% DMSO (serial pre-dilutions of compound are done in 100% DMSO) is pipetted to the wells of a white OptiPlate-96 (Perkin Elmer). A mix consisting of 20 nM GST-MDM2 protein (aa 23-117) and 20 nM biotinylated p53 wt peptide (encompassing aa 16-27 of wt human p53, amino acid sequence […]-Ttds-Lys-Biotin, molecular weight 2132.56 g/mol) is prepared in assay buffer (50 mM Tris/HCl pH 7.2; 120 mM NaCl; 0.1% bovine serum albumin (BSA); 5 mM dithiothreitol (DTT); 1 mM ethylenediaminetetraacetic acid (EDTA); 0.01% Tween 20). 30 μL of the mix is added to the compound dilutions and incubated for 15 min at rt while gently shaking the plate at 300 rounds per minute (rpm). Subsequently, 15 μL of premixed AlphaLISA Glutathione Acceptor Beads and AlphaScreen Streptavidin Donor Beads from PerkinElmer (in assay buffer at a concentration of 10 μg/mL each) are added and the samples are incubated for 30 min at rt in the dark (shaking 300 rpm). Afterwards, the signal is measured in a PerkinElmer Envision HIS Multilabel Reader using the AlphaScreen protocol from Perkin Elmer.
Each plate contains negative controls where biotinylated p53-peptide and GST-MDM2 are left out and replaced by assay buffer. Negative control values are entered as low basis value when using the software GraphPad Prism for calculations. Furthermore, a positive control (5% DMSO instead of test compound; with protein/peptide mix) is pipetted. Determination of IC50 values are carried out using GraphPad Prism 3.03 software (or updates thereof).

Sequence of p53-MDM2 interaction (GST-MDM2 protein aa 23-117 / biotinylated p53 wt peptide) (Q00987 23-117): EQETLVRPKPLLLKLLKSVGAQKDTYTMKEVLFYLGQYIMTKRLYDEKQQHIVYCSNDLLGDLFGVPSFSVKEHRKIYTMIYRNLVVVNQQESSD

Row | Structure (SMILES) | IC50 [nM]
1 | COCc1cccc(CN2[C@@H]3Cn4c(nc5cc(C(=O)O)ccc54)[C@@H]3[C@@H](c3cccc(Cl)c3F)[C@@]23C(=O)Nc2cc(Cl)ccc23)c1 [Ib-185] | 14
2 | Cc1c(C(=O)N2CCCCC2)ccn2c3c(nc12)[C@@H]1[C@H](C3)N(CC2CC2)[C@@]2(C(=O)Nc3cc(Cl)ccc32)[C@H]1c1ccnc(Cl)c1F [Ic-35] | 10
3 | COC(=O)c1ccc2c(c1)nc1n2CC[C@H]2[C@@H]1[C@H](c1cccc(Cl)c1F)[C@]1(C(=O)Nc3cc(Cl)ccc31)N2CC=C(C)C [Ib-66] | 166
4 | COc1c(C(=O)O)ccc2c3n(nc12)[C@@H]1[C@H](C3)N(CC2CC2)[C@@]2(C(=O)Nc3cc(Cl)ccc32)[C@H]1c1cccc(Cl)c1F [Ia-36] | 5
5 | COCCOCCNC(=O)c1ccc2c(c1)nc1n2CC[C@H]2[C@@H]1[C@H](c1cccc(Cl)c1F)[C@]1(C(=O)Nc3cc(Cl)ccc31)N2CC1CC1 [Ib-219] | 5
6 | O=C(c1ccc2c(c1)nc1n2CC[C@H]2[C@@H]1[C@H](c1cccc(Cl)c1F)[C@]1(C(=O)Nc3cc(Cl)ccc31)N2CC1CC1)N1CC(O)C1 [Ib-227] | 4
7 | COc1cc2c3n(nc2cc1C(=O)O)[C@@H]1[C@H](C3)N(CC2CC2)[C@@]2(C(=O)Nc3cc(Cl)ccc32)[C@H]1c1cccc(Cl)c1F [Ia-35] | 2
8 | O=C(O)c1ccc2nc3n(c2c1)CC[C@H]1[C@@H]3[C@H](c2cccc(Cl)c2F)[C@]2(C(=O)Nc3cc(Cl)ccc32)N1CC1CC1 [Ib-155] | 2
9 | CS(=O)(=O)c1ccc2c(c1)nc1n2CC[C@H]2[C@@H]1[C@H](c1cccc(Cl)c1F)[C@]1(C(=O)Nc3cc(Cl)ccc31)N2CC1CC1 [Ib-58] | 7
10 | CNC(=O)c1cc2nc3n(c2cc1C)CC[C@H]1[C@@H]3[C@H](c2cccc(Cl)c2F)[C@]2(C(=O)Nc3cc(Cl)ccc32)N1CC1CC1 [Ib-237] | 10
11 | O=C(O)c1ccc2c(c1)nc1n2CC[C@H]2[C@@H]1[C@H](c1cccc(Cl)c1F)[C@]1(C(=O)Nc3cc(Cl)ccc31)N2CC1CC1 [Ib-106] | 3
12 | O=C(O)c1ccc2nc3n(c2c1)C[C@H]1[C@@H]3[C@H](c2cccc(Cl)c2F)[C@]2(C(=O)Nc3cc(Cl)ccc32)N1CC1CC1 [Ib-179] | 2
13 | CCOc1cccc(CN2[C@H]3Cc4c5cc(C)c(C(=O)O)cc5nn4[C@H]3[C@H](c3cccc(Cl)c3F)[C@]23C(=O)Nc2cc(Cl)ccc23)c1 [Ia-40] | 2
14 | CCOc1cccc(CN2[C@@H]3Cn4c(nc5cc(C(N)=O)ccc54)[C@@H]3[C@@H](c3cccc(Cl)c3F)[C@@]23C(=O)Nc2cc(Cl)ccc23)c1 [Ib-243] | 99
15 | CC(C)(C)CN1[C@H]2CCn3c(nc4cc(C(=O)O)ccc43)[C@H]2[C@H](c2cccc(Cl)c2F)[C@]12C(=O)Nc1cc(Cl)ccc12 [Ib-150] | 20
16 | Cc1c(C(=O)O)ccc2nc3n(c12)CC[C@H]1[C@@H]3[C@H](c2cccc(Cl)c2F)[C@]2(C(=O)Nc3cc(Cl)ccc32)N1CC1CC1 [Ib-204] | 2
17 | Cc1cc2c(nc3n2CC[C@H]2[C@@H]3[C@H](c3cccc(Cl)c3F)[C@]3(C(=O)Nc4cc(Cl)ccc43)N2CC2CC2)c(C)c1C(=O)O [Ib-161] | 11
18 | CS(=O)(=O)CCCN1[C@H]2CCn3c(nc4cc(C(=O)O)ccc43)[C@H]2[C@H](c2cccc(Cl)c2F)[C@]12C(=O)Nc1cc(Cl)ccc12 [Ib-133] | 58
19 | CNC(=O)c1ccc2c(c1)nc1n2CC[C@H]2[C@@H]1[C@H](c1cccc(Cl)c1F)[C@]1(C(=O)Nc3cc(Cl)ccc31)N2CC1CC1 [Ib-209] | 3
20 | CN(C)C(=O)c1ccc2c(c1)nc1n2CC[C@H]2[C@@H]1[C@H](c1cccc(Cl)c1F)[C@]1(C(=O)Nc3cc(Cl)ccc31)N2CC1CC1 [Ib-211] | 11
21 | CCOc1cccc(CN2[C@H]3Cn4c(nc5cc(C(=O)OC)ccc54)[C@H]3[C@H](c3cccc(Cl)c3F)[C@]23C(=O)Nc2cc(Cl)ccc23)c1 [Ib-49] | 5

Row | Structure (SMILES) | IC50 [nM]
22 | Cc1cc(C(=O)O)cc2c1nc1n2CC[C@H]2[C@@H]1[C@H](c1cccc(Cl)c1F)[C@]1(C(=O)Nc3cc(Cl)ccc31)N2CC1CC1 [Ib-205] | 3
23 | CCN1[C@H]2Cc3c4ccc(C(=O)NC5(C)COC5)cc4nn3[C@H]2[C@H](c2cccc(Cl)c2F)[C@]12C(=O)Nc1cc(Cl)ccc12 [Ia-53] | 7
24 | CN1CC(NC(=O)c2ccc3c(c2)nc2n3CC[C@H]3[C@@H]2[C@H](c2cccc(Cl)c2F)[C@]2(C(=O)Nc4cc(Cl)ccc42)N3CC2CC2)C1 [Ib-228] | 5
25 | O=C(O)c1ccc2c3n(nc2c1)[C@@H]1[C@H](C3)N(CC2CC2)[C@@]2(C(=O)Nc3cc(Cl)ccc32)[C@H]1c1ccnc(Cl)c1F [Ia-41] | 3
26 | O=C1Nc2cc(Cl)ccc2[C@@]12[C@@H](c1cccc(Cl)c1F)[C@@H]1c3nc4cc(N5CCCCC5)ccc4n3CC[C@@H]1N2CC1CC1 [Ib-249] | 240
27 | O=C(O)c1ccc2c(c1)nc1n2C[C@@H]2[C@H]1[C@@H](c1cccc(Cl)c1F)[C@@]1(C(=O)Nc3cc(Cl)ccc31)N2CC1CC1 [Ib-177] | 53
28 | Cc1cc2c3n(nc2cc1C(=O)O)[C@@H]1[C@H](C3)N(CC(C)C)[C@@]2(C(=O)Nc3cc(Cl)ccc32)[C@H]1c1cccc(Cl)c1F [Ia-39] | 4
29 | O=C(NCCO)c1ccc2c(c1)nc1n2CC[C@H]2[C@@H]1[C@H](c1cccc(Cl)c1F)[C@]1(C(=O)Nc3cc(Cl)ccc31)N2CC1CC1 [Ib-215] | 4
30 | O=C(O)c1ccc2c(c1)nc1n2CC[C@H]2[C@@H]1[C@H](c1cccc(Cl)c1F)[C@]1(C(=O)Nc3cc(Cl)ccc31)N2CCC(F)(F)F [Ib-146] | 11
31 | CCOc1cccc(CN2[C@H]3Cn4c(nc5cc(C(N)=O)ccc54)[C@H]3[C@H](c3cccc(Cl)c3F)[C@]23C(=O)Nc2cc(Cl)ccc23)c1 [Ib-242] | 2
32 | O=C(O)c1cc2nc3n(c2cc1OC(F)(F)F)C[C@H]1[C@@H]3[C@H](c2cccc(Cl)c2F)[C@]2(C(=O)Nc3cc(Cl)ccc32)N1CC1CC1 [Ib-197] | 2
33 | O=C(O)c1cc2nc3n(c2cc1OC(F)(F)F)CC[C@H]1[C@@H]3[C@H](c2cccc(Cl)c2F)[C@]2(C(=O)Nc3cc(Cl)ccc32)N1CC1CC1 [Ib-158] | 3
34 | CNC(=O)c1ccc2c(c1)nc1n2CC[C@H]2[C@@H]1[C@H](c1cccc(Cl)c1F)[C@]1(C(=O)Nc3cc(Cl)ccc31)N2CC(C)C [Ib-233] | 4
35 | O=C(O)C1(c2ccc3c(c2)nc2n3CC[C@H]3[C@@H]2[C@H](c2cccc(Cl)c2F)[C@]2(C(=O)Nc4cc(Cl)ccc42)N3CC2CC2)CC1 [Ib-165] | 28
36 | O=C(NC1CC1)c1ccc2c3n(nc2c1)[C@@H]1[C@H](C3)N(CC2CCC2)[C@@]2(C(=O)Nc3cc(Cl)ccc32)[C@H]1c1cccc(Cl)c1F [Ia-47] | 9
37 | CNC(=O)c1cc2nc3n(c2cc1OC)CC[C@H]1[C@@H]3[C@H](c2cccc(Cl)c2F)[C@]2(C(=O)Nc3cc(Cl)ccc32)N1CC1CC1 [Ib-235] | 3
38 | COCCN1[C@H]2CCn3c(nc4cc(C(=O)O)ccc43)[C@H]2[C@H](c2cccc(Cl)c2F)[C@]12C(=O)Nc1cc(Cl)ccc12 [Ib-127] | 11
39 | Cc1cc2c3n(nc2cc1C(=O)O)[C@@H]1[C@H](C3)N(CC2CC2)[C@@]2(C(=O)Nc3cc(Cl)ccc32)[C@H]1c1cccc(Cl)c1F [Ia-33] | 3
40 | CC(C)CN1[C@H]2CCn3c(nc4cc(C(=O)O)ccc43)[C@H]2[C@H](c2cccc(Cl)c2F)[C@]12C(=O)Nc1cc(Cl)ccc12 [Ib-109] | 8
41 | Cc1c(C(=O)O)ccc2nc3n(c12)CC[C@H]1[C@@H]3[C@H](c2cccc(Cl)c2F)[C@]2(C(=O)Nc3cc(Cl)ccc32)N1CC1CC1 [Ib-206] | 4
